Results published in BindingDB's records for doi:10.1021/cb8001039 (National Cancer Institute-Bethesda, 2008).
pIC50: −log10 of the molar value.

Key:
Assay in all cases: FRET-Based RNase H Assay
Conditions in all cases: pH 8; 20 °C
Ribonuclease HI = molecular target: T1, Ribonuclease HI (Escherichia coli (strain K12), UniProt P0A7Y4)
T1 sequence (P0A7Y4 whole entry): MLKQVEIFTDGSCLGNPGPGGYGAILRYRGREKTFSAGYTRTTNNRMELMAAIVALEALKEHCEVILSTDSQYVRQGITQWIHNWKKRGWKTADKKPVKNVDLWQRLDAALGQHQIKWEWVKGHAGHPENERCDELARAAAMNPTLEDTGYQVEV
Method: (§1) RNaseH assays were performed using an 18-nucleotide 3-fluorescein-labeled RNA annealed to a complementary 18-nucleotide 5-dabcyl conjugated DNA. The increase in fluorescence as a result of RNase H hydrolysis was monitored with a Spectramax Gemini EM fluorescence spectrometer. Data were analyzed using the instrument manufacturer SoftMax pro software. To determine IC50 values, the slope of the curve representing the time dependent increase in fluorescence was determined at 10 min, when initial rate conditions are met and substrate depletion is not significant. The slope values were plotted against the logarithm of the inhibitor concentrations, and IC50 values were determined using SigmaPlot software.

[1] = molecular target: T2, Gag-Pol polyprotein [613-1167,R896S,E946D,S1117V]/[618-1043,R896S,E946D] (Human immunodeficiency virus 2, UniProt P04584, E946D/R896S/S1117V)
T2 construct: 613-1167; 618-1043
Method: as §1

[2] = molecular target: T3, Gag-Pol polyprotein [600-1029,C879S]/[600-1159,C879S] (Human immunodeficiency virus 1, UniProt P03366, C879S)
T3 construct: 600-1029; 600-1159
Method: as §1

Ribonuclease H1 = molecular target: T4, Ribonuclease H1 (Homo sapiens, UniProt O60930)
T4 sequence (O60930 whole entry): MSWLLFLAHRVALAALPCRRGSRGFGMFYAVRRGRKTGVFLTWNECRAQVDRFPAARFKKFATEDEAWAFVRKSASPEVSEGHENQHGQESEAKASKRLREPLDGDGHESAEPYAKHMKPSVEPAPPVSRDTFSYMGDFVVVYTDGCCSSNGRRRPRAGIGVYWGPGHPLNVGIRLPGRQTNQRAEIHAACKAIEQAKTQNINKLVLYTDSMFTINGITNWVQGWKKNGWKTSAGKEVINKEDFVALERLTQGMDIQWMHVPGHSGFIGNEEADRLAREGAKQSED
Method: as §1

T2 sequence (P04584 613-1167, looked up, stated change not applied): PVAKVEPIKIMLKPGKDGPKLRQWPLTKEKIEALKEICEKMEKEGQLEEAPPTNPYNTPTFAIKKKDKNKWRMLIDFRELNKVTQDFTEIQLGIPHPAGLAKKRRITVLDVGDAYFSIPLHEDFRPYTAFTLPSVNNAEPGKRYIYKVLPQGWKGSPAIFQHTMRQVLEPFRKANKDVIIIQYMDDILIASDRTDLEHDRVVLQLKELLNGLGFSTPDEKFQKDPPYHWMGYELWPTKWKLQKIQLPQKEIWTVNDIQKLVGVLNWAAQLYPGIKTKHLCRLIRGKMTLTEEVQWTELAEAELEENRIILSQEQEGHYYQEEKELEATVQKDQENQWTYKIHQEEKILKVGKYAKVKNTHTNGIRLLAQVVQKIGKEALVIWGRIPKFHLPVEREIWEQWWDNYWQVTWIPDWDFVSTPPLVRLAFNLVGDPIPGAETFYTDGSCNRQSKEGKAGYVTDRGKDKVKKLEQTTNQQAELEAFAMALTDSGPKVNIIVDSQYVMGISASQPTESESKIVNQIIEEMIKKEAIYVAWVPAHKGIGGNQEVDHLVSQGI
T2 sequence (P04584 618-1043, looked up, stated change not applied): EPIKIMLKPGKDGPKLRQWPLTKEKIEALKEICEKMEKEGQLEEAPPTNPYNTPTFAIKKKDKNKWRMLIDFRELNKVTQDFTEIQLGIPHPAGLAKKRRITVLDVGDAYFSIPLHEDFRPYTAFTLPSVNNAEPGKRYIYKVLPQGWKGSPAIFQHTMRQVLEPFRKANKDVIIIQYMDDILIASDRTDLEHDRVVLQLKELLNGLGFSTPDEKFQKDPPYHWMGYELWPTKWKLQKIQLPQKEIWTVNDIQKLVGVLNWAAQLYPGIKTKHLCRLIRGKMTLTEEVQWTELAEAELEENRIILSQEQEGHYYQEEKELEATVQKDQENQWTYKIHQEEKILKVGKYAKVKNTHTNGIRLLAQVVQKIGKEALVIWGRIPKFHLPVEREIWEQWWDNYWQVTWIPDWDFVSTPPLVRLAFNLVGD

SMILES | pIC50 (Ribonuclease HI) | pIC50 [1] | pIC50 [2] | pIC50 (Ribonuclease H1)
Cc1sc(NC(=O)c2ccco2)c(C(N)=O)c1C [vinylogous urea, NSC727448] | 4.14 | 5.30 | 5.49 | 4.54
NC(=O)c1c(N)sc2c1CCCCC2 [SMR000066289] | 4.00 | 5.60 | 5.70 | 4.97
